# Laboratory results: the supplement of paper PMC10307832
# Legend:
# Test in all cases: relative viability (nuclei count vs DMSO), 5 days (fraction); higher = more cells survive
# [1] = compound: COCC[n+]1c2c(n(Cc3cnccn3)c1C)C(=O)c1ccccc1C2=O [YM155] + C[C@]1(O)C[C@@H](c2nc(-c3ccc4ccc(-c5ccccc5)nc4c3)c3c(N)nccn32)C1 [Linsitinib] (partner 1 µM)
# Procedure, shortened: (§1)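 Relative viability equals treated-well nuclei counts divided by vehicle-well nuclei counts. Counts came from 4× images of lung cancer cell lines grown in 1536-well plates for 5 days after pin-tool dosing on the day after seeding. Dosing used one drug alone or a fixed anchor-drug dose plus five library-drug doses (not always all listed) in √10 steps, and values are medians of duplicate plates.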
# [2] = compound: COCC[n+]1c2c(n(Cc3cnccn3)c1C)C(=O)c1ccccc1C2=O [YM155] + CC1(C)CCC(c2ccc(Cl)cc2)=C(CN2CCN(c3ccc(C(=O)NS(=O)(=O)c4ccc(N[C@H](CCN5CCOCC5)CSc5ccccc5)c(S(=O)(=O)C(F)(F)F)c4)cc3)CC2)C1 [Navitoclax] (partner 0.5 µM)
# Procedure, shortened: as §1
# [3] = compound: CC(C)(C)c1cc(NC(=O)Nc2ccc(-c3cn4c(n3)sc3cc(OCCN5CCOCC5)ccc34)cc2)no1 [Quizartinib] + Cc1cc(Nc2cc(N3CCN(C)CC3)nc(Sc3ccc(NC(=O)C4CC4)cc3)n2)n[nH]1 [Tozasertib] (partner 0.1 µM)
# Procedure, shortened: as §1
# [4] = compound: COCC[n+]1c2c(n(Cc3cnccn3)c1C)C(=O)c1ccccc1C2=O [YM155] + CC(=O)c1c(C)c2cnc(Nc3ccc(N4CCNCC4)cn3)nc2n(C2CCCC2)c1=O [Palbociclib] (partner 0.5 µM)
# Procedure, shortened: as §1
Cell Line,relative viability ([1]; first compound 0.002 µM),relative viability ([1]; first compound 0.006325 µM),relative viability ([1]; first compound 0.02 µM),relative viability ([1]; first compound 0.06325 µM),relative viability ([2]; first compound 0.002 µM),relative viability ([2]; first compound 0.006325 µM),relative viability ([2]; first compound 0.02 µM),relative viability ([2]; first compound 0.06325 µM),relative viability ([3]; first compound 0.001 µM),relative viability ([3]; first compound 0.01 µM),relative viability ([3]; first compound 0.03162 µM),relative viability ([3]; first compound 0.1 µM),relative viability ([4]; first compound 0.002 µM),relative viability ([4]; first compound 0.006325 µM),relative viability ([4]; first compound 0.02 µM),relative viability ([4]; first compound 0.06325 µM),relative viability ([3]; first compound 0.003162 µM)
LK-2,0.425,0.764,0.491,0.796,0.776,0.855,0.85,1.09,0.133,0.145,0.17,0.142,0.851,0.655,0.632,0.78,
LOU-NH91,1.05,0.879,0.97,0.978,0.748,0.677,0.725,0.716,0.472,0.462,0.649,0.668,0.527,0.509,0.628,0.544,0.693
LU99A,0.581,0.503,0.554,0.545,0.753,0.729,0.756,0.677,0.288,0.262,0.259,0.272,0.416,0.403,0.388,0.409,0.274
LXF-289,0.97,0.86,0.999,0.828,0.94,0.949,0.957,0.87,0.16,0.196,0.21,0.247,0.584,0.628,0.612,0.605,0.207
NCI-H23,0.54,0.595,0.598,0.295,0.727,0.879,0.967,0.269,,0.405,0.249,0.231,,0.567,0.523,0.388,0.343
NCI-H322M,0.762,0.929,0.917,1.01,1.24,1.23,1.28,1.47,0.393,0.505,0.511,0.558,0.433,0.471,0.503,0.473,0.468
NCI-H441,0.461,0.486,0.557,0.353,0.56,0.633,0.554,0.403,0.66,0.586,,0.489,0.224,0.202,0.267,0.213,0.599
NCI-H460,0.778,0.936,0.735,0.517,1.17,1.23,1.27,0.903,0.4,0.394,0.142,0.0635,0.166,0.169,0.226,0.212,0.401
NCI-H520,0.895,1.13,1.04,0.957,1.15,0.991,1.07,1.03,0.347,0.444,0.393,0.385,0.175,0.205,0.238,0.304,0.448
NCI-H647,1.11,1.37,0.996,0.857,0.947,1.17,0.855,0.442,0.267,0.284,0.329,0.301,0.348,0.424,0.423,0.238,0.258
NCI-H727,0.28,0.321,0.28,0.364,0.479,0.382,0.39,0.48,0.594,0.557,0.648,0.7,0.639,0.694,0.615,0.705,0.654
NCI-H838,0.935,0.997,1.03,0.485,1.04,1.21,1.22,0.791,0.249,0.3,0.276,0.22,0.191,0.237,0.226,0.198,0.22
NCI-H1355,0.821,0.832,0.948,0.875,0.947,1.08,1.08,1.04,0.495,0.51,0.442,0.433,0.4,0.39,0.4,0.394,0.542
NCI-H1395,1.11,0.889,1.09,1.14,1.4,0.799,1.53,1.55,0.873,0.782,0.814,0.682,0.565,0.613,0.598,0.627,0.686
NCI-H1437,0.994,1.05,0.989,0.878,1.07,1.08,1.09,1.01,0.372,0.422,0.367,0.329,0.245,0.329,0.309,0.298,0.399
NCI-H1651,1.04,0.94,1,0.642,1.22,0.995,1.08,0.606,0.604,0.645,0.351,0.5,0.548,0.519,0.494,0.53,0.679
NCI-H1666,0.88,,1.01,0.578,0.991,,0.996,0.861,0.56,0.612,0.462,0.557,0.616,0.701,0.651,0.611,0.594
NCI-H1734,0.916,0.811,0.889,0.979,0.867,0.88,0.835,0.876,0.237,0.267,0.274,0.271,0.362,0.313,0.374,0.345,0.288
